Data on twelve compounds can be found in EP0343268A1, “Pharmaceutical composition and process for preparing the same” (BIOGAL GYOGYSZERGYAR, priority 1988, dated 1989).

Data set [1] is described as follows: In vitro mucolytic effect on ear discharges.
For data set [2] the following is noted: in the presence of sulfhydryl-containing compounds, particularly acetylcysteine; cited from earlier work.
In data set [3] the test system is pathogenic microorganisms occurring in the discharges of patients suffering from chronic otitis (otitis media chronica). In words: Treatment of ear discharges by antibacterial agents (sensitivity of the pathogens). It counts as cell-based. The method, then: In the Department for Qtorhinolaryngology of the Medical University of Debrecen, adult and child patients were examined to identify the types of pathogenic microorganisms occurring in the discharges of patients suffering from chronic otitis (otitis media chronica); the discharges of 510 patients were analyzed for the bacterial infection.

The test system of data set [4] is chronic mesotympanic otitis. The data set can be described thus: Single-ingredient treatment of patients with chronic mesotympanic otitis. Type of data set: in vivo. The note with it: 1% solution. The source says: (§1) Several compositions according to the invention were also studied with omitting one active ingredient of the composition in order to support the progressive character of the multi-active-component type composition according to the invention. These experiments led to the following results.

The next data set has as its system external otitis. The data set can be described thus: Single-ingredient treatment of patients with external otitis. Type of data set: in vivo. The note with it: 1% solution.
Source text: as §1

The nature of data set [5]: Single-ingredient treatment of patients (steroid alone; sulfhydryl compound solution alone). It counts as in vivo. The note with it: aqueous solutions (pH 7.0±0.2) of 3 to 19%, preferably 5 to 15%.
Source text: as §1
An objective improvement was observed only in those cases involving large eardrum defects, strong hyperaemia and significant mucous membrane hypertrophy of the tympanic cavity as well as in the cases of external eczematous otitis (otitis externa ekzematosa).
The dilution of the discharge was not observed during the use,however, the amount of the discharge was somewhat reduced in spite of the decrease of its viscosity. The discharge, which was coherent and mucous in character, rather took the form of a precipitate under effect of the treatment by an acetylcysteine solution.

For data set [6] the following is noted: cited from earlier work.
For data set [7] the following is noted: cited from earlier work. This is another data set of the same source.
The conditions of data set [8]: cited from earlier work. This is another data set of the same source.
In data set [9] the test system is several gram-positive and gram-negative bacteria such as Pseudomonas aeruginosa. The following applies: in vitro conditions; cited from earlier work.
Setting [10] is: number of cases, total number of the examinations 510.

Take `O[C@H](CS)[C@@H](O)CS` [dithioerythritol]: the mucolytic effect result in data set [1] was “a mucolytic effect can also be shown”.

`C[C@H]1c2cccc(O)c2C(O)=C2C(=O)[C@]3(O)C(O)=C(C(N)=O)C(=O)[C@@H](N(C)C)[C@@H]3[C@@H](O)[C@@H]21` [doxycyclin]: in [2], the “absorption from the stomach” value was “not disadvantageously influenced”.

For the compound `O=C(O)C(S)C(S)C(=O)O` (stereo not shown) [dimercaptosuccinate], the mucolytic effect result in [1] is reported as “a mucolytic effect can also be shown”.

On to `N[C@@H](CSCC(=O)O)C(=O)O` [carbocysteine], for which the mucolytic effect entry in data set [1] was “a mucolytic effect can also be shown”.

For `CC(C)(CO)[C@@H](O)C(=O)NCCC(=O)NCCS` [pantetheine], in [1], the mucolytic effect entry is “a mucolytic effect can also be shown”.

On to `N[C@@H](CCC(=O)N[C@@H](CS)C(=O)NCC(=O)O)C(=O)O` [glutathione], for which the mucolytic effect result in [1] is given as “a mucolytic effect can also be shown”.

In the case of `CC[C@H]1OC(=O)[C@H](C)[C@@H](O[C@H]2C[C@@](C)(OC)[C@@H](O)[C@H](C)O2)[C@H](C)[C@@H](O[C@@H]2O[C@H](C)C[C@H](N(C)C)[C@H]2O)[C@](C)(O)C[C@@H](C)C(=O)[C@H](C)[C@@H](O)[C@]1(C)O` [Erythromycin], the “absorption from the stomach” value in data set [2] was “not disadvantageously influenced”.

Penicillin: in data set [3] (setting [10]), the “A = therapeutically active (sensitive)” value is recorded as 67, the “M = moderately active” value is given as 22 and the “R = inactive (resistant)” value is given as 218. For the same compound, the “Act. = activity %” value in data set [3] (share of examined cases moderately active or active) is 29.4%.

In the case of `NC[C@H]1O[C@H](O[C@H]2[C@H](O)[C@@H](O[C@H]3O[C@H](CO)[C@@H](O)[C@H](N)[C@H]3O)[C@H](N)C[C@@H]2N)[C@H](N)C[C@@H]1O` [Tobramycin], the “substantial improvement of the pathological processes” value was “about 60 % of patients” in data set [4] and ≤ 40% in the data set with external otitis. Also, the “absorption from the stomach” value in data set [2] is recorded as “not disadvantageously influenced”.

With `CC(=O)N[C@@H](CS)C(=O)O` [acetylcysteine, N-acetyl-L-cysteine], in [5], the inflammatory symptomes entry is given as “moderated” and the “viscosity of the discharge” value is on record as “advantageously influenced”. Besides, the LD₅₀ in dogs in data set [6] is 1000 mg/kg of body-weight. Also, in [7], the LD₅₀ in rats was 6000 mg/kg of body-weight. The LD₅₀ in mice in data set [8] is given as 3000 mg/kg of body-weight. Further, in data set [9], the “effect with several antibiotics” value is reported as “synergistic effect”.

In the case of `CC1(C)S[C@@H]2[C@H](NC(=O)[C@H](N)c3ccc(O)cc3)C(=O)N2[C@H]1C(=O)O` [amoxicillin], the “absorption from the stomach” value in data set [2] is on record as “not disadvantageously influenced”.

Turning to Neomycin, the “absorption from the stomach” value in [2] is “not disadvantageously influenced”.
